From patent US20210030829A1, “METHODS FOR TREATMENT OF CANCER AND ENHANCEMENT OF NANOPARTICLE ACCUMULATION IN TISSUES” (University of Louisville Research Foundation, Inc., priority 2018, published 2021)

Design: species or system male C57BL/6 mice
Details: mouse, in vivo

Visible abnormality: No visible abnormality
Structure (SMILES): CCCCCCCCCCCCCCCCCCN1/C(=C/C=C/C=C/C=C/C2=[N+](CCCCCCCCCCCCCCCCCC)c3ccccc3C2(C)C)C(C)(C)c2ccccc21.[I-] [free DiR, 1,1-dioctadecyl-3,3,3′,3′-tetramethylindotricarbocyanine-iodide]
